Target: rat mGlu2 (Rattus norvegicus (Rat), UniProt P31421)
Experiment: mGlu2 Ca2+ flux assay
Assay type: cell-based
Details: for IC50: Gα15 HEK293 cells stably expressing rat mGlu2, glutamate EC80, >10,000 = no plateau, >30,000 = no measurable activity; for remaining activity at 30 µM / rat mGlu2 Glu max: amplitude of response in the presence of 30 μM test compound as percentage of maximal response to glutamate; for remaining activity at 30 µM: read-out: rat mGlu2 Glu max
Summary of the method: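 Gα15 HEK293 cells stably expressing rat mGlu2, Fluo-4 loaded; compound added, then glutamate at EC20 after 2.3 min and EC80 afterward, calcium flux read as F/F0. Peak amplitude around EC80 addition normalized to glutamate max; IC50 by unconstrained 4-parameter fit, top concentration 30 μM.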

Chain of rat mGlu2 (P31421 19-872): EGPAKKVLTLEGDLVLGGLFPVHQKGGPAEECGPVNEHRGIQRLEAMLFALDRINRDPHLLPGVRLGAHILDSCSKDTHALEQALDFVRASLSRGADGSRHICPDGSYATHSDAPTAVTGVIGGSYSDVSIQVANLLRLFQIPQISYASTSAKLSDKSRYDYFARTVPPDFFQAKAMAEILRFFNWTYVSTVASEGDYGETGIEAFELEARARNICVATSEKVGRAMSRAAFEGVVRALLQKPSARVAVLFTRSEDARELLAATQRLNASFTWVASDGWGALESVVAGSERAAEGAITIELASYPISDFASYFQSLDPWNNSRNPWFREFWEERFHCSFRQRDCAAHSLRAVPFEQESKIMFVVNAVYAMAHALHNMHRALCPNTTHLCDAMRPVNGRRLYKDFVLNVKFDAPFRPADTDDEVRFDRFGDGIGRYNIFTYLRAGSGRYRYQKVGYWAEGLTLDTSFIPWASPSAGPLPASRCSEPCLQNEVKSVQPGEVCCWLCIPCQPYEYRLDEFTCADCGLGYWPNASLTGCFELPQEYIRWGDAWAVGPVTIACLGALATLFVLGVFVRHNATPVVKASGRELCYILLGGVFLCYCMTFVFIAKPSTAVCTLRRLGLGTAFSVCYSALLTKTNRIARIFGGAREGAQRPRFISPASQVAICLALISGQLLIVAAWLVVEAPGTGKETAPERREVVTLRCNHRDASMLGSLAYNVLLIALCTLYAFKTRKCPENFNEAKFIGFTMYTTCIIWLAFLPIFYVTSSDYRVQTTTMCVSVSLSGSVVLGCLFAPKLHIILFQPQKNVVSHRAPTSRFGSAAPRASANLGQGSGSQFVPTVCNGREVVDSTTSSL

| IC50 | remaining activity at 30 µM | NAM designation (concentration-dependent decrease in the glutamate EC80 response) | rat mGlu2 Glu max | SMILES |
| --- | --- | --- | --- | --- |
| 5240 nM | 3.34% |  |  | NC(=O)c1cc(-c2ccc(F)cc2)c(OCCOc2cc(F)cc(Br)c2)cn1 [Compound 102, 5-(2-(3-bromo-5-fluorophenoxy)ethoxy)-4-(4-fluorophenyl)picolinamide] |
| > 10000 nM | 53.7% |  |  | NC(=O)c1cc(-c2ccc(F)cc2)c(OCCOc2ccc(F)c(Br)c2)cn1 [Compound 103, 5-(2-(3-bromo-4-fluorophenoxy)ethoxy)-4-(4-fluorophenyl)picolinamide] |
| > 30000 nM |  |  |  | NC(=O)c1cc(-c2ccc(F)cc2)c(OCCOc2cccc(Br)c2F)cn1 [Compound 104, 5-(2-(3-bromo-2-fluorophenoxy)ethoxy)-4-(4-fluorophenyl)picolinamide] |
| 3440 nM | 26.5% | (Partial NAM) |  | NC(=O)c1cc(-c2ccc(F)cc2)c(OCCOc2cccc(Br)c2)cn1 [Compound 106, 5-(2-(3-bromophenoxy)ethoxy)-4-(4-fluorophenyl)picolinamide] |
| 2380 nM | 1.95% |  |  | NC(=O)c1cc(-c2ccc(F)cc2)c(OCCOc2cccc(F)c2)cn1 [Compound 108, 5-(2-(3-fluorophenoxy)ethoxy)-4-(4-fluorophenyl)picolinamide] |
|  | 2.16% |  |  | NC(=O)c1cc(-c2ccc(F)cc2)c(OCCOc2ccccc2F)cn1 [Compound 109, 5-(2-(2-fluorophenoxy)ethoxy)-4-(4-fluorophenyl)picolinamide] |
| 1720 nM | 38.7% |  |  | NC(=O)c1cc(-c2ccc(F)cc2)c(OCCOc2cc(F)cc(F)c2)cn1 [Compound 110, 5-(2-(3,5-difluorophenoxy)ethoxy)-4-(4-fluorophenyl)picolinamide] |
| 624 nM | 1.34% |  |  | NC(=O)c1cc(-c2ccc(F)cc2)c(OCCOc2cncc(Br)c2)cn1 [Compound 111, 5-(2-((5-bromopyridin-3-yl)oxy)ethoxy)-4-(4-fluorophenyl)picolinamide] |
| 738 nM |  |  | 1.80% | Cc1ccc(OCCOc2cnc(C(N)=O)cc2-c2ccc(F)cc2)cn1 [Compound 114] |
| 242 ± 83 nM | 1.51 ± 0.16% |  |  | NC(=O)c1cc(-c2ccc(F)cc2)c(OCCOc2ccnc(C(F)(F)F)c2)cn1 [Compound 116, 4-(4-fluorophenyl)-5-(2-((2-(trifluoromethyl)pyridin-4-yl)oxy)ethoxy)picolinamide] |
| > 10000 nM | 20.3% |  |  | Cc1ncc(OCCOc2cnc(C(N)=O)cc2-c2ccc(F)cc2)cn1 [Compound 119, 4-(4-fluorophenyl)-5-(2-((2-methylpyrimidin-5-yl)oxy)ethoxy)picolinamide] |
| 483 nM | 1.72% |  |  | CC(COc1ccnc(C(F)(F)F)c1)Oc1cnc(C(N)=O)cc1-c1ccc(F)cc1 (stereo not shown) [Compound 120, 4-(4-fluorophenyl)-5-((1-((2-(trifluoromethyl)pyridin-4-yl)oxy)propan-2-yl)oxy)picolinamide] |
| 2130 nM | 1.66% |  |  | Cc1ccc(OC(C)COc2cnc(C(N)=O)cc2-c2ccc(F)cc2)cn1 (stereo not shown) [Compound 121, 4-(4-fluorophenyl)-5-(2-((6-methylpyridin-3-yl)oxy)propoxy)picolinamide] |
| 1510 nM | 0.37% |  |  | CC(COc1cnc(C(N)=O)cc1-c1ccc(F)cc1)Oc1cccnc1 (stereo not shown) [Compound 123, 4-(4-fluorophenyl)-5-(2-(pyridin-3-yloxy)propoxy)picolinamide] |
| 1590 nM | 2.03% |  |  | NC(=O)c1cc(-c2ccc(F)cc2)c(OCCCOc2ccnc(C(F)(F)F)c2)cn1 [Compound 127, 4-(4-fluorophenyl)-5-(3-((2-(trifluoromethyl)pyridin-4-yl)oxy)propoxy)picolinamide] |
| 3780 nM | 2.52% |  |  | NC(=O)c1cc(-c2ccc(F)cc2)c(OCCCOc2cccnc2)cn1 [Compound 128, 4-(4-fluorophenyl)-5-(3-(pyridin-3-yloxy)propoxy)picolinamide] |

The remaining lines, values behind:

| SMILES | IC50 | remaining activity at 30 µM | NAM designation (concentration-dependent decrease in the glutamate EC80 response) | rat mGlu2 Glu max |
| --- | --- | --- | --- | --- |
| NC(=O)c1cc(-c2ccc(F)cc2)c(OCCOc2cc(Br)ccc2F)cn1 [Compound 101, 5-(2-(5-bromo-2-fluorophenoxy)ethoxy)-4-(4-fluorophenyl)picolinamide] | 4260 nM | 1.85% |  |  |
| NC(=O)c1cc(-c2ccc(F)cc2)c(OCCOc2ccccc2Br)cn1 [Compound 105, 5-(2-(2-bromophenoxy)ethoxy)-4-(4-fluorophenyl)picolinamide] | > 30000 nM |  |  |  |
| NC(=O)c1cc(-c2ccc(F)cc2)c(OCCOc2ccc(F)cc2)cn1 [Compound 107, 5-(2-(4-fluorophenoxy)ethoxy)-4-(4-fluorophenyl)picolinamide] | 8510 nM | -10.7% |  |  |
| NC(=O)c1cc(-c2ccc(F)cc2)c(OCCOc2cncc(F)c2)cn1 [Compound 112] | 827 nM |  |  | 0.05% |
| NC(=O)c1cc(-c2ccc(F)cc2)c(OCCOc2ccc(F)nc2)cn1 [Compound 113] | 502 nM |  |  | 1.38 (n = 2) % |
| NC(=O)c1cc(-c2ccc(F)cc2)c(OCCOc2ccc(C(F)(F)F)nc2)cn1 [Compound 115, 4-(4-fluorophenyl)-5-(2-((6-(trifluoromethyl)pyridin-3-yl)oxy)ethoxy)picolinamide] | 1310 nM | 3.64% |  |  |
| NC(=O)c1cc(-c2ccc(F)cc2)c(OCCOc2ccnc(F)c2)cn1 [Compound 117, 4-(4-fluorophenyl)-5-(2-((2-fluoropyridin-4-yl)oxy)ethoxy)picolinamide] | 615 nM | 1.02% |  |  |
| Cc1cc(OCCOc2cnc(C(N)=O)cc2-c2ccc(F)cc2)ccn1 [Compound 118, 4-(4-fluorophenyl)-5-(2-((2-methylpyridin-4-yl)oxy)ethoxy)picolinamide] | 410 nM | 1.16% |  |  |
| Cc1ncc(OC(C)COc2cnc(C(N)=O)cc2-c2ccc(F)cc2)cn1 (stereo not shown) [Compound 122, 4-(4-fluorophenyl)-5-(2-((2-methylpyrimidin-5-yl)oxy)propoxy)picolinamide] | > 10000 nM | 8.04% |  |  |
| CC(COc1cnc(C(N)=O)cc1-c1ccc(F)cc1)Oc1ccnc(C(F)(F)F)c1 (stereo not shown) [Compound 124, 4-(4-fluorophenyl)-5-(2-((2-(trifluoromethyl)pyridin-4-yl)oxy)propoxy)picolinamide] | 835 nM | 0.75% |  |  |
| Cc1ncc(OCCCOc2cnc(C(N)=O)cc2-c2ccc(F)cc2)cn1 [Compound 125, 4-(4-fluorophenyl)-5-(3-((2-methylpyrimidin-5-yl)oxy)propoxy)picolinamide] | > 10000 nM | 35.1% |  |  |
| NC(=O)c1cc(-c2ccc(F)cc2)c(OCCCOc2ccc(C(F)(F)F)nc2)cn1 [Compound 126] | 2940 nM |  |  | 5.52% |
| Cc1ccc(OCCCOc2cnc(C(N)=O)cc2-c2ccc(F)cc2)cn1 [Compound 129] | 2870 nM |  |  | 2.91% |
| NC(=O)c1cc(-c2ccc(F)cc2)c(OCCOCc2ccccc2)cn1 [Compound 130, 5-(2-(benzyloxy)ethoxy)-4-(4-fluorophenyl)picolinamide] | 2250 nM | 9.91% |  |  |
